Laboratory results from patent US11702414B2, “Thiadiazole IRAK4 inhibitors” (Gilead Sciences, Inc., priority 2018, dated 2023).
Read-outs that look alike come from different tables or passages of the source.

Tests used:
TNFα = assay: IRAK4 Monocyte TNFα Cell Based Assay; parameters: species or system human
Protocol: IRAK4 Monocyte TNFα Cell Based Assay Procedure:
The cell suspension was then plated at a density of 5,000 cells/well onto black 384 well Greiner clear bottom plates. Plates were pre-spotted with test compounds and serially diluted in DMSO where 40 nL/well were delivered using the Echo 550 acoustic liquid dispenser (Labcyte®) for a final DMSO concentration of 0.1%. Plated cells were treated with compound for 1 hour at 37° C. Cells were then stimulated with 50 pg/ml of LPS (Sigma) excluding outside columns of plate used for unstimulated cell control wells. Cells were incubated for an additional 4 hours at 37° C. Cells were then spun out of the media and 5μl of sample were taken and analyzed for total TNFα content using the TR-FRET Human TNFα detection system (CisBio). This system utilizes two labeled antibodies (cryptate and XL665) that bind to two different epitopes of the TNFα molecule and produce FRET signal proportional to the concentration of TNFα in the sample. Detection antibodies are mixed 50:50 and 5 μL were dispensed into each well. Plates were covered with clear seals and incubated at room temp overnight. […] Percent of control was calculated as follows: % Control=100×(RatioSample−Ratio0% Stimulation)/(Ratio100% Stimulation−Ratio0% Stimulation) where unstimulated cells (0% stimulation) were the negative control and stimulated cells (100% stimulation) were used as the positive control.

IRAK4 enzyme = IRAK4 enzyme (Homo sapiens (Human), UniProt Q9NWZ3); assay: IRAK4 Biochemical Assay (TR-FRET, STK1 KinEASE)
Sequence of IRAK4 enzyme (Q9NWZ3 whole entry): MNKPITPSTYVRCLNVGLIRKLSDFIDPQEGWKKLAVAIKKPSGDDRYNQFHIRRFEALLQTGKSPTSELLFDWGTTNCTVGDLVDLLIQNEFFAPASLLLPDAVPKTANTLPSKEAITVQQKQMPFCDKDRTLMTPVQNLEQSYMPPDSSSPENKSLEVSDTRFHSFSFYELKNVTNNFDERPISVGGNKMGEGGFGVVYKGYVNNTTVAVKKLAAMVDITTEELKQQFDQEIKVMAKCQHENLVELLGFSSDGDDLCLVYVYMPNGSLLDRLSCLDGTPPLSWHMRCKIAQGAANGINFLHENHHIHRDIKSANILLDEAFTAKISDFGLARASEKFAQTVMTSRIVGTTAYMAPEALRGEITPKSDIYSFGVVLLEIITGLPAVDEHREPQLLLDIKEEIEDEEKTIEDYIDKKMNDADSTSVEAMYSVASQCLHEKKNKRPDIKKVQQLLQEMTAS
Protocol: IRAK4 enzyme (Carna Biosciences, Chuo-ku, Kobe, Japan) activity was measured by detecting phosphorylated peptide substrate formation using an antibody against the phosphorylated peptide substrate. This is a time-resolved fluorescence resonance energy transfer (TR-FRET) immunoassay, based on the STK1 KinEASE Assay (Cisbio, Bedford, Mass.). The assay was designed as a simple two-step, endpoint assay (a 5 μl enzyme reaction followed by 5 μl stop and detect Solution) performed in ProxiPlate-384 Plus plates (Perkin Elmer, Waltham, Mass.). […] Compounds diluted in DMSO were spotted into 384 well plates using a Labcyte® Echo 550 Liquid Handling System prior to addition of IRAK4 enzyme and peptide substrate. Reaction solutions were delivered using a Multi-Flo (Bio-Tek Instruments). The enzyme and peptide solution was incubated with compound for 15 minutes at room temp before the reaction was initiated by the addition of ATP. The standard 5 μl reaction mixture contained 500 μM ATP, 2 μM peptide (STK1 Peptide), 0.75 nM of IRAK4 in reaction buffer (50 mM HEPES, pH 7.0, 0.02% NaN3, 0.01% BSA, 0.1 mM Orthovanadate, 5 mM MgCl2, 0.025% NP-40, 1 mM DTT). After 120 min of incubation at room temperature, 5 μl of Stop and Detect Solution (1:100 Cryptate labeled anti-phosphorylated peptide antibody solution and 125 nM Tracer in a 50 mM HEPES pH 7.0 detection buffer containing sufficient EDTA) was added. The plate was then further incubated for 60 minutes at room temperature and read on Envision 2103 Multilabeled reader (PerkinElmer) with excitation/emission/FRET emission at 340 nm/615 nm/665 nm, respectively. Fluorescence intensities at 615 nm and 665 nm emission wavelengths were expressed as a ratio (665 nm/615 nm). Percentage of inhibition was calculated as below: % Inhibition=100×(RatioSample−Ratio0% Inhibition)/(Ratio100% Inhibition−Ratio0% Inhibition)
The 0% inhibition value comes from control wells lacking inhibitor.

[1] = human monocytes, second part of Table 2 (compounds 33-343), unit inferred, read-out: EC50MONO TNF HTRF
[2] = Homo sapiens, Monocyte, human monocytes, LPS-stimulated, compounds 1-32, read-out: EC50 TNF

EC50 (TNFα; [1])	Compound	further results
11.3 nM	CC(C)Nc1cc(-c2ccc3cc(C#N)cnn23)ncc1-c1nnc(C23CCC(O)(CC2)CC3)s1 [Example 89, 7-(5-(5-(4-hydroxybicyclo[2.2.2]octan-l-yl)-1,3,4-thiadiazol-2-yl)-4-(isopropylamino)pyridin-2-yl)pyrrolo[1,2-b]pyridazine-3-carbonitrile]	
4.9 nM	C[C@H](C#N)Nc1cc(-c2ccc3cc(C#N)cnn23)ncc1-c1nnc(N2CC3CC(C2)O3)s1 [Example 178, 7-(5-(5-(6-oxa-3-azabicyclo[3.1.1]heptan-3-yl)-l,3,4-thiadiazol-2-yl)-4-(((R)-1-cyanoethyl)amino)pyridin-2-yl)pyrrolo[1,2-b]pyridazine-3-carbonitrile]	
	CC(=O)N[C@H]1CC[C@H](c2nnc(-c3cnc(-c4ccc5cc(C#N)cnn45)cc3NC3COC3)s2)CC1 [Example 21, N-((1r,4r)-4-(5-(6-(3-cyanopyrrolo[1,2-b]pyridazin-7-yl)-4-(oxetan-3-ylamino)pyridin-3-yl)-1,3,4-thiadiazol-2-yl)cyclohexyl)acetamide]	EC50 (TNFα; [2]): 10 nM
	CC(C)Nc1cc(-c2ccc3cc(C#N)cnn23)ncc1-c1nnc(N2CC3CC(C2)N3C(=O)C2CCN(C)CC2)s1 [Example 117, 7-(4-(isopropylamino)-5-(5-(6-(1-methylpiperidine-4-carbonyl)-3,6-diazabicyclo[3.1.1]heptan-3-yl)-1,3,4-thiadiazol-2-yl)pyridin-2-yl)pyrrolo[1,2-b]pyridazine-3-carbonitrile]	EC50 (TNFα; Homo sapiens, Monocyte, read-out: EC50MONO TNF HTRF): 11.1 nM
305 nM	CC(C)Nc1cc(-c2ccc3cc(C#N)cnn23)ncc1-c1nnc(CCN)s1 [Example 212, 7-(5-(5-(2-aminoethyl)-l,3,4-thiadiazol-2-yl)-4-(isopropylamino)pyridin-2-yl)pyrrolo[1,2-b]pyridazine-3-carbonitrile]	
10.8 nM	CC1(O)CCN(c2nnc(-c3cnc(-c4ccc5cc(C#N)cnn45)cc3NC3COC3)s2)CC1 [Example 187, 7-(5-(5-(4-hydroxy-4-methylpiperidin-1-yl)-1,3,4-thiadiazol-2-yl)-4-(oxetan-3-ylamino)pyridin-2-yl)pyirolo[1,2-b]pyridazine-3-carbonitrile]	
2320 nM	CC(C)Nc1cc(-c2ccc3cc(C#N)cnn23)ncc1-c1nnc(C(=O)N2CC[C@H](CO)C2)s1 [Example 221, (S)-7-(5-(5-(3-(hydroxymethyl)pyrrolidine-l-carbonyl)-1,3,4-thiadiazol-2-yl)-4-(isopropylamino)pyridin-2-yl)pyrrolo[1,2-b]pyridazine-3-carbonitrile]	
3.5 nM	C[C@]1(O)CCN(c2nnc(-c3cnc(-c4ccc5cc(C#N)cnn45)cc3NC3CCOCC3)s2)C[C@@H]1F [Example 204, 7-(5-(5-((3S,4S)-3-fluoro-4-hydroxy-4-methylpiperidin-l-yl)-1,3,4-thiadiazol-2-yl)-4-((tetrahydro-2H-pyran-4-yl)amino)pyridin-2-yl)pyrrolo[1,2-b]pyridazine-3-carbonitrile]	
	CC1(O)CCC(c2nnc(-c3cnc(-c4ccc5cc(C#N)cnn45)cc3NC3COC3)s2)CC1 (single isomer, unassigned) [Example 206, 7-(5-(5-(4-hydroxy-4-methylcyclohexyl)-1,3,4-thiadiazol-2-yl)-4-(oxetan-3-ylamino)pyridin-2-yl)pyrrolo[1,2-b]pyridazine-3-carbonitrile]	IC50 (IRAK4 enzyme; second part of Table 2 (compounds 33-343), unit inferred, read-out: IC50 IRAK4-HTBS): 0.56 nM
7.6 nM	CC1(O)CCN(c2nnc(-c3cnc(-c4ccc5cc(C#N)cnn45)cc3NC3CCOCC3)s2)CC1 [Example 188, 7-(5-(5-(4-hydroxy-4-methylpiperidin-l-yl)-1,3,4-thiadiazol-2-yl)-4-((tetrahydro-2H-pyran-4-yl)amino)pyridin-2-yl)pyrrolo[1,2-b]pyridazine-3-carbonitrile]	
	CC(C)Nc1cc(-c2ccc3cc(C#N)cnn23)ncc1-c1nnc(-n2cnc(C3CC3)c2)s1 [Compound 326, 7-(5-(5-(4-cyclopropyl-1H-imidazol-1-yl)-1,3,4-thiadiazol-2-yl)-4-(isopropylamino)pyridin-2-yl)pyrrolo[1,2-b]pyridazine-3-carbonitrile]	IC50 (IRAK4 enzyme): 6.01 nM
	COC(=O)NC[C@H]1C[C@H](Nc2cc(-c3ccc4cc(C#N)cnn34)ncc2-c2nnc([C@H]3CC[C@H](NC(C)=O)CC3)s2)C1 [Example 23, methyl (((1R,3r)-3-((5-(5-((1r,4R)-4-acetamidocyclohexyl)-1,3,4-thiadiazol-2-yl)-2-(3-cyanopyrrolo[1,2-b]pyridazin-7-yl)pyridin-4-yl)amino)cyclobutyl)methyl)carbamate]	EC50 (TNFα; [2]): 6 nM
8.8 nM	CC(=O)N[C@@H]1CCN(c2nnc(-c3cnc(-c4ccc5cc(C#N)cnn45)cc3NC3COC3)s2)CC1(F)F [Example 183, (R)-N-(1-(5-(6-(3-cyanopyrrolo[l,2-b]pyridazin-7-yl)-4-(oxetan-3-ylamino)pyridin-3-yl)-1,3,4-thiadiazol-2-yl)-3,3-difluoropiperidin-4-yl)acetamide]	
22.9 nM	CC(C)Nc1cc(-c2ccc3cc(C#N)cnn23)ncc1-c1nnc(N2CC[C@@](C)(O)[C@H](F)C2)s1 [Example 191, 7-(5-(5-((3R,$R)-3-fluoro-4-hydroxy-4-methylpiperidin-1-yl)-1,3,4-thiadiazol-2-yl)-4-(isopropylamino)pyridin-2-yl)pyrrolo[1,2-b]pyridazine-3-carbonitrile]	
	CC(=O)N[C@H]1CC[C@H](c2nnc(-c3cnc(-c4ccc5cc(C#N)cnn45)cc3N[C@H]3CC[C@H](c4nnc(C(F)F)o4)CC3)s2)CC1 [Example 2]	EC50 (TNFα; [2]): 8 nM
26.5 nM	CC(C)Nc1cc(-c2ccc3cc(C#N)cnn23)ncc1-c1nnc(N2CC[C@@H](O)C(F)(F)C2)s1 [Example 162, (R)-7-(5-(5-(3,3-difluoro-4-hydroxypiperidin-l-yl)-1,3,4-thiadiazol-2-yl)-4-(isopropylamino)pyridin-2-yl)pyrrolo[1,2-b]pyridazine-3-carbonitrile]	
	CC(=O)N[C@H]1CCN(c2nnc(-c3cnc(-c4ccc5cc(C#N)cnn45)cc3NC(C)C)s2)C[C@@H]1O [Example 64, N-((3S,4S)-1-(5-(6-(3-cyanopyrrolo[1,2-b]pyridazin-7-yl)-4-(isopropylamino)pyridin-3-yl)-1,3,4-thiadiazol-2-yl)-3-hydroxypiperidin-4-yl)acetamide]	IC50 (IRAK4 enzyme): 0.28 nM
	CC(=O)N[C@@H]1CCN(c2nnc(-c3cnc(-c4ccc5cc(C#N)cnn45)cc3NC(C)C)s2)C[C@@H]1O [Example 63, N-((3S,4R)-1-(5-(6-(3-cyanopyrrolo[1,2-b]pyridazin-7-yl)-4-(isopropylamino)pyridin-3-yl)-1,3,4-thiadiazol-2-yl)-3-hydroxypiperidin-4-yl)acetamide]	EC50 (TNFα; Homo sapiens, Monocyte, human monocytes, second part of Table 2 (compounds 33-343), unit inferred, read-out: EC50MONO TNF HTRF): 13.8 nM
	CC(=O)N[C@H]1CC[C@H](c2nnc(-c3cnc(-c4ccc5cc(C#N)cnn45)cc3NCC#N)s2)CC1 [Example 20, N-((1r,4r)-4-(5-(4-((cyanomethyl)amino)-6-(3-cyanopyrrolo[1,2-b]pyridazin-7-yl)pyridin-3-yl)-1,3,4-thiadiazol-2-yl)cyclohexyl)acetamide]	EC50 (TNFα; [2]): 6 nM

Compound	EC50 (TNFα; [1])	further results
C[C@H](C#N)Nc1cc(-c2ccc3cc(C#N)cnn23)ncc1-c1nnc(N2C[C@H]3CC[C@@H](C2)[C@@H]3NC(=O)C2CC2)s1 [Example 148, N-((1R,5S,8S)-3-(5-(4-(((R)-1-cyanoethyl)amino)-6-(3-cyanopyrrolo[1,2-b]pyridazin-7-yl)pyridin-3-yl)-1,3,4-thiadiazol-2-yl)-3-azabicyclo[3.2.1]octan-8-yl)cyclopropanecarboxamide]	1.4 nM	
